The text below walks through data of ChEMBL document CHEMBL3421624, “Design and Synthesis of Antitumor Heck-Coupled Sclareol Analogues: Modulation of BH3 Family Members by SS-12 in Autophagy and Apoptotic Cell Death” (J Med Chem, 2015).

Active and inactive are the calls of the source. The rule behind the calls is not given here. Bounds are passed on as bounds.

The subject of one assay is HeLa. The experiment in a line: Cytotoxicity against human HeLa cells after 48 hrs by MTT assay. It is filed as functional, cell-based. A general note: Tetrazolium assays rely on reduction of a dye to a coloured formazan, in cell work by metabolically active cells.
A short description of assay [1]: Cytotoxicity against human PC3 cells after 48 hrs by MTT assay. The note with it: PC-3, 48 h. It is filed as functional, cell-based.
Another assay deals with A549. Put plainly: Cytotoxicity against human A549 cells after 48 hrs by MTT assay. Format: functional, cell-based. Particulars: A549, 48 h.
The test system of assay [2] is PC-3. Put plainly: Induction of autophagy in human PC3 cells at 100 to 300 nM after 24 hrs by MDC staining based fluorescence microscopy. Format: functional, cell-based.
The subject of assay [3] is PC-3. Put plainly: Induction of autophagy in human PC3 cells at 100 to 300 nM after 24 hrs by acridine orange staining based fluorescence microscopy. It is filed as functional.
For assay [4], the system named is PC-3. Put plainly: Effect on SQSTM1/P62 protein expression in human PC3 cells at 0.2 to 0.3 uM after 24 hrs by immunoblotting method. It is filed as functional, cell-based. In general terms: In western blotting, separated proteins are transferred to a membrane and probed.
The subject of assay [5] is PC-3. The experiment in a line: Effect on MAP1LC3 I/II protein expression in human PC3 cells at 0.2 to 0.3 uM after 24 hrs by immunoblotting method. Format: functional, cell-based.
Assay [6] deals with PC-3. The experiment in a line: Effect on Beclin-1 protein expression in human PC3 cells at 0.2 to 0.3 uM after 24 hrs by immunoblotting method. Format: functional, cell-based.
Assay [7] relates to PC-3. The experiment in a line: Inhibition of Akt in human PC3 cells assessed as reduction in mTOR S2448 phosphorylation at 0.1 to 0.3 uM after 24 hrs by Western blotting method. It is filed as cell-based.
The test system of assay [8] is PC-3. Put plainly: Induction of autophagy in human PC3 cells at 100 to 300 nM after 24 hrs. It is filed as functional, cell-based.
Assay [9] has as its system PC-3. The experiment in a line: Induction of apoptosis in human PC3 cells assessed as caspase-3 cleavage at 300 nM after 24 hrs by Western blotting method. It is filed as functional, cell-based.
The test system of assay [10] is PC-3. Put plainly: Inhibition of Akt S473 phosphorylation in human PC3 cells at 0.1 to 0.3 uM after 24 hrs by Western blotting method. Format: cell-based.
Assay [11] relates to PC-3. Put plainly: Induction of apoptosis in human PC3 cells at 100 to 300 nM after 24 hrs. It is filed as functional, cell-based.
Assay [12] has as its system PC-3. The experiment in a line: Induction of autophagy in human PC3 cells assessed as increase in punctate EGFP-LC3 pattern in autophagosomes at 300 nM after 24 hrs by fluorescence microscopy. It is filed as functional, cell-based.
The subject of assay [13] is PC-3. Put plainly: Induction of autophagy in human PC3 cells assessed as increase in punctate EGFP-LC3 pattern in autophagosomes at 100 nM after 24 hrs by fluorescence microscopy. Format: functional, cell-based.
Assay [14] concerns PC-3. The experiment in a line: Induction of autophagy in human PC3 cells assessed as increase LC3 intracellular localization at 100 nM after 24 hrs by immunocytochemistry. It is filed as functional, cell-based.

In general, IC50 refers to the point on the concentration scale where inhibition reaches its midpoint. Read a low IC50 as inhibition by little substance. With `CC1(C)CCC[C@]2(C)[C@@H](CC[C@@](C)(O)/C=C/c3ccc(Br)cc3)[C@](C)(O)CC[C@@H]12`, the IC50 in the assay with HeLa amounted to 45.9 µM; in assay [1], 41300 nM; in the assay on A549, 43.2 µM.

As to `CC1(C)CCC[C@]2(C)[C@@H](CC[C@@](C)(O)/C=C/c3ccccc3)[C@](C)(O)CC[C@@H]12`, the result in the assay with PC-3 [2] and in the assay with PC-3 [3] was Active. Besides, the half-maximal inhibitory concentration (IC50) with HeLa amounted to 3.32 µM; in [1] it was 121 nM; in the assay on A549 it was 3.15 µM.

Regarding `C=C[C@](C)(O)CC[C@@H]1[C@@]2(C)CCCC(C)(C)[C@@H]2CC[C@@]1(C)O` [SCLAREOL], the result in the assay with PC-3 [4], in the assay with PC-3 [5], in the assay with PC-3 [6], in the assay on PC-3 [8] and with PC-3 [11] was inactive. Further, the Activity result in the assay on PC-3 [3] is on record as “<=5%”. Also, the IC50 stood at 3.35 µM with HeLa, 105 nM in [1] and 3.21 µM in the assay on A549. For the same molecule, the inhibition result in the assay on PC-3 [7] and in the assay with PC-3 [10] was “Active” throughout. Moreover, in the assay on PC-3 [9], the result was Active.

For the molecule `COc1cccc(OC)c1/C=C/[C@](C)(O)CC[C@@H]1[C@@]2(C)CCCC(C)(C)[C@@H]2CC[C@@]1(C)O`, the IC50 in the assay with HeLa was determined as 48.2 µM; in [1] it was 4000 nM; in the assay on A549 it was 42 µM.

As to `Cc1ccc(C)c(/C=C/[C@](C)(O)CC[C@@H]2[C@@]3(C)CCCC(C)(C)[C@@H]3CC[C@@]2(C)O)c1`, the result in the assay with PC-3 [2] and in the assay on PC-3 [3] was Active. In addition, the half-inhibitory concentration (IC50) with HeLa is 3.38 µM; in [1], 176 nM; in the assay on A549, 3.32 µM.

Take `CC1(C)CCC[C@]2(C)[C@@H](CC[C@@](C)(O)/C=C/c3ccc(Oc4ccccc4)cc3)[C@](C)(O)CC[C@@H]12`: the figures for the IC50 (in the assay with HeLa; in assay [1]; in the assay with A549) were 3.48 µM, 268 nM and 3.2 µM, respectively.

Take `CC1(C)CCC[C@]2(C)[C@@H](CC[C@@](C)(O)/C=C/c3ccc(C(=O)O)cc3)[C@](C)(O)CC[C@@H]12`: the result with PC-3 [2] and in the assay on PC-3 [3] was Active. Moreover, the IC50 in the assay with HeLa is 45.4 µM; in assay [1], 102 nM; in the assay with A549, 44.3 µM.

As to `COc1cccc(/C=C/[C@](C)(O)CC[C@@H]2[C@@]3(C)CCCC(C)(C)[C@@H]3CC[C@@]2(C)O)c1OC`, the IC50 in the assay with HeLa worked out at 3.88 µM; in assay [1], 2900 nM; in the assay with A549, 3.28 µM.

In assay [1], `CN[C@@H]1C[C@H]2O[C@@](C)([C@@H]1OC)n1c3ccccc3c3c4c(c5c6ccccc6n2c5c31)C(=O)NC4` [STAUROSPORINE] gave a half-maximal inhibitory concentration (IC50) of 31 nM.

For `Cc1cccc(C)c1/C=C/[C@](C)(O)CC[C@@H]1[C@@]2(C)CCCC(C)(C)[C@@H]2CC[C@@]1(C)O`, the 50% inhibitory concentration (IC50) in the assay on HeLa was 3.46 µM; in assay [1], 278 nM; in the assay on A549 it was 3.34 µM.

Turning to `CC1(C)CCC[C@]2(C)[C@@H](CC[C@@](C)(O)/C=C/c3cncc4ccccc34)[C@](C)(O)CC[C@@H]12`, the IC50 with HeLa is 46 µM; in assay [1], 3900 nM; in the assay with A549 it was 45.7 µM.

In the case of `CC1(C)CCC[C@]2(C)[C@@H](CC[C@@](C)(O)/C=C/c3c4ccccc4c(Br)c4ccccc34)[C@](C)(O)CC[C@@H]12`, the 50% inhibitory concentration (IC50) was found to be 46 µM with HeLa, 301 nM in assay [1] and 44.9 µM with A549.

Turning to `CC1(C)CCC[C@]2(C)[C@@H](CC[C@@](C)(O)/C=C/c3ccc(Cl)nc3)[C@](C)(O)CC[C@@H]12`, the IC50 with HeLa was 3.68 µM; in [1], 275 nM; in the assay with A549 it was 3.28 µM.

For `CO/C1=C\C(C)=C\[C@@H](C)[C@@H](O)[C@@H](C)C/C(C)=C/C=C/[C@H](OC)[C@@H]([C@@H](C)[C@@H](O)[C@H](C)[C@@]2(O)C[C@@H](O)[C@H](C)[C@@H](C(C)C)O2)OC1=O`, the outcome with PC-3 [12] was inactive.

Turning to `CC1(C)CCC[C@]2(C)[C@@H](CC[C@@](C)(O)/C=C/c3cccc([N+](=O)[O-])c3)[C@](C)(O)CC[C@@H]12`, the outcome in the assay with PC-3 [2] and in the assay on PC-3 [3] was Active. Besides, the IC50 is 3.38 µM in the assay on HeLa, 153 nM in [1] and 3.4 µM in the assay with A549.

With `CC(C)(C)c1ccc(/C=C/[C@](C)(O)CC[C@@H]2[C@@]3(C)CCCC(C)(C)[C@@H]3CC[C@@]2(C)O)cc1`, the results for the half-inhibitory concentration (IC50) (with HeLa; in assay [1]; in the assay with A549) were 48.5 µM, 3800 nM and 45 µM, respectively.

Turning to `Cc1cccc(/C=C/[C@](C)(O)CC[C@@H]2[C@@]3(C)CCCC(C)(C)[C@@H]3CC[C@@]2(C)O)c1C`, the values for the half-inhibitory concentration (IC50) (in the assay on HeLa; in assay [1]; in the assay on A549) were 3.7 µM, 3500 nM and 3.8 µM, respectively.

For the molecule `CO[C@H]1C[C@@H]2CC[C@@H](C)[C@@](O)(O2)C(=O)C(=O)N2CCCC[C@H]2C(=O)O[C@H]([C@H](C)C[C@@H]2CC[C@@H](O)[C@H](OC)C2)CC(=O)[C@H](C)/C=C(\C)[C@@H](O)[C@@H](OC)C(=O)[C@H](C)C[C@H](C)/C=C/C=C/C=C/1C`, the result with PC-3 [13] and with PC-3 [14] was inactive.
